Assay results reported in PMC4062444, “Mechanisms of U87 Astrocytoma Cell Uptake and Trafficking of Monomeric versus Protofibril Alzheimer’s Disease Amyloid-β Proteins” (PLoS ONE, 2014).
Where a name gives a salt, the structure may show the parent alone.

How the values were obtained:
[1] = test system: U87 human brain astrocytoma cell line; assay: Uptake of HiLyte Fluor555-tagged Aβ42 peptides by U87 cells (confocal microscopy); type: cell-based; settings: for reduction of oAβ42 uptake by U87 cells / reduction of sAβ42 uptake by U87 cells: inhibitor pretreatment (5 mM amiloride 30 min; 300 nM wortmannin 1 h; 1 mM MβCD 30 min), integrated intracellular fluorescence vs mock-treated cells, >25 cells in each of three experiments; for reduction of oAβ42 uptake by U87 cells: then 0.4 µM HiLyte Fluor555-oAβ42 2 h at 37°C; for reduction of sAβ42 uptake by U87 cells: then 0.4 µM HiLyte Fluor555-sAβ42 2 h at 37°C; for effect of Dyn 1 dominant-negative K44A mutant on uptake: U87 cells expressing GFP-tagged Dyn1 K44A, 0.4 µM peptide 2 h at 37°C
Experimental: U87 cells were seeded on coverslips and grown at 37°C overnight in complete medium. Uptake experiments were initiated by incubating cells at 37°C with 0.4 µM HiLyte Fluor555-tagged Aβ42 peptides for 2 h, which were diluted in imaging medium (α-MEM without phenol red supplemented with 20 mM HEPES, pH 7.4, and 5% FBS). Cells were subsequently washed three times with ice-cold PBS, fixed with 3.7% PFA for 20 min and stained with 1 µg/ml DAPI diluted in PBS containing 0.1% saponin for 15 min at room temperature. Then, cells were mounted with a mounting solution containing 50% glycerol and 50% PBS. For endocytosis inhibition experiments, cells were pretreated with various endocytotic inhibitors with indicated times followed by Aβ42 peptides uptake in the presence or absence of these inhibitors.
Briefly, in most cases, the integrated intracellular signals were determined from a 2D projection image of the fluorescence intensities of a Z-stack lacking the most bottom and top planes as they mostly contain plasma membrane signals. The cell outline in each plane was determined by increasing the brightness of the image. In some cases, bright field images were also taken to help identify the cell outlines. The integrated fluorescence within the cell was background-corrected by subtraction of the fluorescence signal surrounding the cell under analysis and its value was then normalized to the mean (average) of the control cells set to 100. For plain cells in the absence or presence of various pharmacological treatment, all intact cells in each image field were used for quantification of Aβ uptake; for cells transfected with plasmids, only the positively transfected cells were used for quantification of Aβ uptake, which was estimated from the EGFP signal in green channel.

astrocytic U87 cells = settings: 20 µM Aβ, cited from earlier work
Source text: We assumed that U87 cells tolerated the toxic effects of Aβ42 species better than the neurons, particularly because we used relatively low concentrations of Aβ peptides, which could be rapidly cleared by U87 cells and produced negligible cellular toxicity. This property assigns a neuronal protection role to astrocytes because they can promptly clear Aβ ...

U87 cells [2] = test system: U87 cells
Experimental: Cells maintained in the serum free medium without Aβ were used as negative control. Following addition of 20 µl MTS reagent into each well, plates were incubated at 37°C for 4 h. The formazan product was quantified by measuring absorbance at 490 nm with a Microplate Reader (Molecular Devices, Sunnyvale, CA, USA). All the experiments were repeated three times.

U87 cells [3] = test system: U87 cells; remark: listed apart in the source
Experimental: Cells were incubated in fresh DMEM containing 0.4 µM fluro-tagged Aβ42 monomers or oligomers for 2 h. After extensively wash, cells were chased in fresh completed medium with indicated times up to 72 hours. Cells were subsequently fixed, stained with DAPI and mounted as described above. Images acquisition and analysis were performed as described below.
Estimation of the half-life and rate constants for degradation of Aβ42 peptides were made by fitting data using a single-phase exponential decay equation (Origin, ver. 6.0).

U87 cells [4] = assay: Localization of internalized Aβ42 within the endolysosomal system; type: cell-based, human; settings: live-cell confocal; for fraction transported into early endosomes (EGFP-Rab5): U87 cells transfected with EGFP-Rab5, 0.4 µM peptide for 15 min, 30 min, 1 h or 2 h; for fraction localized to Lysotracker Green positive vesicles (lysosomes): U87 cells, 0.4 µM peptide for 30 min to 3 h, 50 nM LysoTracker Green
Experimental: The trafficking of fluro-tagged monomeric and oligomeric Aβ42 was measured as follows. To examine the localization in early endosomes, cells were transfected with EGFP-Rab5 plasmid to label early endosomes. 24 h after transfection, cells were treated with Aβ42 peptides for indicated time periods. After changing with the fresh imaging medium, live cell imaging was then taken using a confocal microscope with an objective heater (set at 37°C). To examine the localization of peptides in lysosomes, plain cells were first treated with Aβ42 peptides for indicated time periods, and 30 min before taking imaging, lysotracker Green were supplemented in the incubation medium (50 nM) to label lysosomes. Afterwards, fresh medium was changed and live cell imaging was taken.
Images were deconvolved using AutoQuant, a 50-pixel-wide rolling-ball subtraction algorithm was subsequently used to remove background noise. The sub-stacks of 3 sections spanning 0.4 µm were generated and imported to ImageJ for analysis. Manders’ coefficient was calculated using ImageJ plugin “JACop”. The percentage was scored as the Aβ puncta signals that are positive for EGFP-Rab5 or Lysotracker Green signals with respect to the total number of Aβ puncta.

ThT fluorescence assay = type: physicochemical; settings: 10 µM ThT in deionized water, pH 7.4; ex 450 nm, em 482 nm; Aβ42 0 to 30 µM
Experimental: The assay was performed according to a standard protocol. A 200 µM aqueous Thioflavin T (ThT) was prepared and filtered through 0.22 µm filter. For measurement, Aβ42 samples (monomers or oligomers) were prepared in 10 µM ThT/deionized water solution, pH 7.4. Immediately after mixing, ThT fluorescence of samples was measured with the excitation wavelength at 450 nm and emission wavelength at 482 nm with 470 nm cut-off by a Microplate Reader (Molecular Devices, Sunnyvale, CA, USA).

[5] = Transmission electron microscopy of oligomer preparation; type: physicochemical; settings: TEM, 100 µM oAβ42, 1% uranyl acetate stain, 32,000×
Experimental: Aβ42 oligomers were applied to formvar-coated 300-mesh copper grids for 2 min and excess fluid was filtered off. The samples were then stained with 1% uranyl acetate for 1 min, excess fluid was filtered off and the grids were examined with H-8100 transmission electron microscope (Hitachi, Tokyo, Japan) operated at 150 KV and 32,000× magnification.

In the case of `O=C(N/N=C/c1ccc(O)c(O)c1)c1cc2ccccc2cc1O` [Dynasore], the “oAβ42 entry after Dynasore treatment” value ([1]; Dynasore pretreatment, then oAβ42 2 h at 37°C, confocal microscopy) was “almost entirely blocked” and the “internalization of sAβ42 after Dynasore treatment” value ([1]; Dynasore pretreatment, then sAβ42 2 h at 37°C, confocal microscopy) was “strongly blocked”.
For `N=C(N)NC(=O)c1nc(Cl)c(N)nc1N` [amiloride, Amiloride hydrochloride hydrate], the “reduction of oAβ42 uptake by U87 cells” value [1] was 92% and the “reduction of sAβ42 uptake by U87 cells” value [1] was 61%.
In the case of `COC[C@H]1OC(=O)c2coc3c2[C@@]1(C)C1=C(C3=O)[C@@H]2CCC(=O)[C@@]2(C)C[C@H]1OC(C)=O` [wortmannin], the “reduction of oAβ42 uptake by U87 cells” value [1] was 37% and the “reduction of sAβ42 uptake by U87 cells” value [1] was 55%.
For “Aβ: Aβ used by Wang et al. (ref 36, amyloid-beta1–42) on U87 cells”, the “viability of U87 cells” value (astrocytic U87 cells; autophagic cell death) is listed as “did decrease” and the “apoptosis of U87 cells” value (astrocytic U87 cells) is listed as “not induced to undergo apoptosis”.
In the case of Methyl-β-cyclodextrin [MβCD], the “reduction of oAβ42 uptake by U87 cells” value [1] was 48% and the “reduction of sAβ42 uptake by U87 cells” value [1] was 46%.
In the case of “oAβ42: protofibril, an oligomeric assembly of Aβ42 prepared from sAβ42 at pH 2.0, 37°C, 24 h”, the “U87 cell growth / viability” value (U87 cells [2]) was “not inhibited”, the “half-time (t0.5) of degradation in U87 cells” value (U87 cells [3]) was 8.31 h and the “fraction transported into early endosomes (EGFP-Rab5)” value (U87 cells [4]) was “low fraction”. The “fraction localized to Lysotracker Green positive vesicles (lysosomes)” value (U87 cells [4]) was “increased with prolonged Aβ42 treating time”, the “effect of Dyn 1 dominant-negative K44A mutant on uptake” value [1] was “no effect” and the “ThT fluorescence after titration with Aβ42 solution” value (ThT fluorescence assay) was “increased in a nearly linear-manner”. The “average length of oligomers on electron micrographs” value [5] was < 150 nm and the “diameter of oligomers on electron micrographs” value [5] was “approximately 5 nm”.
For “sAβ42: soluble monomeric HiLyte Fluor555-labeled Aβ42 (Anaspec) dissolved in 0.1% NH4OH”, the “U87 cell growth / viability” value (U87 cells [2]) was “not inhibited”, the “half-time (t0.5) of degradation in U87 cells” value (U87 cells [3]) was 2.68 h and the “fraction transported into early endosomes (EGFP-Rab5)” value (U87 cells [4]) was “low fraction”. The “fraction localized to Lysotracker Green positive vesicles (lysosomes)” value (U87 cells [4]) was “increased with prolonged Aβ42 treating time”, the “effect of Dyn 1 dominant-negative K44A mutant on uptake” value [1] was “no effect” and the “ThT fluorescence after titration with Aβ42 solution” value (ThT fluorescence assay) was “basal fluorescence level”.
